Measured values published in the NIST ThermoML archive (doi:10.1016/j.tca.2013.06.017).

Legend:
[1] = wn = mass fraction of the nth substance listed; conditions: 298.15 K, 101 kPa, Liquid; for viscosity: Capillary tube (Ostwald / Ubbelohde) method; for speed of sound: Sing-around technique in a fixed-path interferometer; for mass density: Vibrating tube method
[2] = refractive index (Na D-line) (dimensionless); wn = mass fraction of the nth substance listed; conditions: 298.15 K, 101 kPa, Liquid, Standard Abbe refractometry

O=[N+]([O-])[O-].O=[N+]([O-])[O-].[Ba+2] [barium dinitrate] + O
Conditions	mass density, [1] [kg/m3]	refractive index, [2]	speed of sound, [1] [m/s]	viscosity, [1] [mPa·s]
w1 = 0.01	997.37	1.3327	1512.7	0.904
w1 = 0.03	998.48	1.3334	1516.4	0.91
w1 = 0.05	999.56	1.3342	1519.3	0.916
